The values below come from patent US20080108568A1, “COMPOUNDS FOR IMPROVING LEARNING AND MEMORY” (TGEN, priority 2006, published 2008).

Structures are written as SMILES. Entries after “also recorded” stand apart in the source; their conditions may differ.

The subject of data set [1] is aged (18-months old) rats. Kind of data set: water escape radial arm maze, more difficult version of the working memory trial (7 out of 8 arms platformed). It is filed as in vivo, rat. How it is done:
(§1) This experiment included a decreased pre-loading phase, a more difficult version of the working memory trial (where 7 out of 8 arms were platformed), and an elongated version of the Morris maze (7 days plus a “probe” trial). Fasudil was delivered via daily sub-cutaneous injections to aged (18-months old) rats at doses of 3 mg/kg/day (n=8) or 10 mg/kg/day (n=8). Controls included both aged and young (4-months old) rats injected daily with vehicle (normal saline). The low dose for Fasudil was based upon the evidence in Example 3 showing efficacy and the high dose was based on that reported in the literature as a commonly used low therapeutic dose. There was a one day loading period for this experiment.

The subject of data set [2] is aged (18-months old) rats. Kind of data set: tolerability observation during daily sub-cutaneous dosing. It is filed as in vivo, rat. As to conditions: 10 mg/kg/day s.c., after 7 days of drug delivery; animals switched to the low dose. How it is done:
as §1

The test system of data set [3] is aged rats. Description: Morris water maze (reference memory). It is filed as in vivo, rat. On the procedure: The rats were also tested using the Morris water maze. The Morris water maze consists of a circular water bath with a single platform. The bath is divided into 4 quadrants and various annuli. A rat was placed in the water bath and the time and distance that the rat required to reach the platform was measured. The solving strategy used by the rat was also noted. The movement of the rat was tracked using a digital tracking system. Each rat underwent 4 trials per day, with entry into the maze varied by quadrant for each trial. The Morris water maze included 5 days of testing, with the first 4 days involving testing and day 5 involving a probe trial.
(§2) Aged animals were pre-loaded for 14 days at 10mg/kg/day (FAS LOW DOSE+PRIMING) or at 3 mg/kg/day (FAS LOW DOSE). After 14 days all animals were administered 3 mg/kg/day. Vehicle was normal saline (0.9%). The rats were subjected to the Radial Arm Maze and the Morris Water Maze described above.
Fasudil was also delivered via daily sub-cutaneous injections to aged (18-months old) rats at doses of 3 mg/kg/day (n=8) or 30 mg/kg/day (n=8). Controls included both aged and young (4-months old) rats injected daily with vehicle (normal saline). The low dose for Fasudil was based upon the previous study showing efficacy with 0.750 mg/kg/day hydroxyfasudil and the high dose was based on that reported in the literature as a commonly used therapeutic dose.

In data set [4] the test system is aged rats (18 months old). Kind of data set: water escape radial arm maze test (4 of 8 arms platformed). It is filed as in vivo, rat. On the procedure: Hydroxyfasudil was tested in vivo by administering to aged rats (18 months old) two doses of 0.75 mg/kg and 0.375 mg/kg, delivered subcutaneously each day for a period of 4-5 days before testing. During testing, hydroxyfasudil was administered in the morning of each testing day. Two control groups were used, with one group being untreated and the other group treated with the vehicle (saline). Both control groups include 9 members, with an age of 4 months.
The rats were then tested using the water escape radial arm maze test. The radial arm maze is a swim-based test without the need for food deprivation. The maze consists of 8 radial arms, with 4 of the arms having a submerged platform. […] The rat was given 180 seconds to locate a platform. If the rat located a platform, the rat was allowed 15 seconds on the platform, and was then removed. When a rat found a platform, that platform was removed prior to beginning the next trial. Each rat was subjected to 4 trials per day, with 1 trial per platform and 30 seconds between trials. Each rat was tested over a period of 12 days, with the first day consisting of training, days 2-7 considered “initial,” and days 8-12 considered “latter.”
Additional efficacy testing was performed using twenty-seven 18-month old male rats were utilized and divided randomly into three treatment groups: saline vehicle (“Aged Vehicle”), hydroxyfasudil in saline at a dose of 0.1875 mg per day (“Aged Low Dose”), and hydroxyfasudil at a dose of 0.3750 mg per day (“Aged High Dose”). Daily injections of the assigned substrate began four days prior to behavioral testing and continued throughout testing, with injections given approximately one hour before daily testing ensued. Animals were tested 4 trials per day for 12 consecutive days. Following the water radial arm maze, spatial reference memory was assessed using the Morris water maze. This testing consisted of 4 trials per day for 4 days with an additional probe trial on the final day.
Using the protocol described above for hydroxyfasudil, rats were treated with from 1 mg/kg to 2 mg/kg of fenretinide. The rats were subjected to the Radial Arm Maze and the Morris Water Maze described above.
as §2

Data set [5] deals with “memory molecule” transcripts in the hippocampus. Kind of data set: expression profile of the entire hippocampus of hydroxyfasudil treated animals. As to conditions: FIG. 6. It is filed as in vivo. From the text: The tissue source is the entire hippocampus.
After testing, the rats were terminated and the brain dissected.

Where [6] appears, read: rats, 1 mg/kg to 2 mg/kg, FIG. 7.

Take `O=S(=O)(c1cccc2cnccc12)N1CCCNCC1` [Fasudil, fasudil]: the memory performance entry in data set [1] (FIG. 12 legend) is reported as “improves memory performance”. The working memory performance result in data set [1] (aged rats, 3 or 10 mg/kg/day s.c. (10 mg/kg/day switched to low dose after 7 days), especially trials 6 and 7, FIG. 12) is on record as “significant improvement in working memory performance”. For the same molecule, the “trauma in dosed animals” value in data set [2] is recorded as “began to show similar trauma as in the previous study”. Further, the “efficacy of the low dose (evidence in Example 3)” value in data set [3] (3 mg/kg/day s.c.) was “efficacy”. Moreover, the “reference memory performance (inches swam to locate the hidden platform), by day” value in data set [3] (14 days pre-loading at 10 or 3 mg/kg/day, then 3 mg/kg/day, collapsed across trials each day, FIG. 11A) is reported as “improves reference memory performance”. Further, the “reference memory performance (inches swam to locate the hidden platform), by trial” value in data set [3] (14 days pre-loading at 10 or 3 mg/kg/day, then 3 mg/kg/day, collapsed by trial for all four days, FIG. 11B) is on record as “improves reference memory performance”.
Take `CC1=C(/C=C/C(C)=C/C=C/C(C)=C/C(=O)Nc2ccc(O)cc2)C(C)(C)CCC1` [fenretinide]: in data set [4] (6 rats per group, FIG. 7 legend), the working memory result is “improving working memory”. In data set [4] (setting [6]), the “memory, greater doses versus smaller doses” value is recorded as “improved memory more than smaller doses” and the “number of incorrect errors made by the rats, versus the control” value is on record as “lowered the number of incorrect errors”.
Regarding `O=c1[nH]ccc2c(S(=O)(=O)N3CCCNCC3)cccc12` [hydroxyfasudil], in data set [5], the ““memory molecule” transcripts in the hippocampus” value was “alteration of “memory molecule” transcripts”. Moreover, the “memory (working memory)” value in data set [4] (18-month old male rats, 0.1875 mg per day and 0.3750 mg per day, daily injections from four days before testing, FIG. 16) is recorded as “improved memory; also recorded: improves working memory”. Further, in data set [4] (FIG. 5 legend), the working memory result is “improves working memory”. In addition, in data set [4] (aged rats, 0.75 mg/kg and 0.375 mg/kg s.c. daily, FIGS. 3-5), the memory result is “improved memory”. Besides, in data set [4] (aged rats, 0.75 mg/kg and 0.375 mg/kg subcutaneously each day, FIGS. 3-4), the “learning scores (orthogonal measures of working memory)” value was “improved learning scores”. Moreover, the “improvements of learning, higher doses versus smaller doses” value in data set [4] (aged rats, 0.75 mg/kg vs 0.375 mg/kg s.c. daily, FIGS. 3-4) is given as “greater improvements of learning”. Besides, the “improvements of memory, higher doses versus smaller doses” value in data set [4] (aged rats, 0.75 mg/kg vs 0.375 mg/kg s.c. daily, FIGS. 3-5) was “greater improvements of memory”. Also, in data set [4] (aging rats receiving the compound), the “performance of aging rats compared with young rats” value was “perform at a level comparable to young rats”.
